Target: T1, DPM-DC (diphosphomevalonate decarboxylase) (Streptococcus pneumoniae, UniProt A0A0H2UNP0)
T1 construct: gene mvaD; N-terminal His9-GST tag removed with PreScission protease; expressed in E. coli BL21(DE3)
T1 sequence (A0A0H2UNP0 1-317): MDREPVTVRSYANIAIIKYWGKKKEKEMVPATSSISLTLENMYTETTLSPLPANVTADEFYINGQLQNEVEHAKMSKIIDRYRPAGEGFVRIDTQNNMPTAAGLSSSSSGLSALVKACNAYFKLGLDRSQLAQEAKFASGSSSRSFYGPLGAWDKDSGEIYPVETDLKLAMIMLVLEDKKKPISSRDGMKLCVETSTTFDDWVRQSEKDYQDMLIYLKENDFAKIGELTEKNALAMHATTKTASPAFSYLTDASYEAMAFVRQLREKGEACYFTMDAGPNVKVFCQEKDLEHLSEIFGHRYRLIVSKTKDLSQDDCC
Assay: PK/LDH-coupled NADH oxidation
Assay type: biochemical
Settings: ATP 2.0 mM, MgCl2 1.0 mM + nucleotide, KCl 50 mM, Hepes pH 8.0, 25 C

C[C@@](O)(CCOP(=O)(O)OP(=O)(O)O)CC(=O)O [DPM]
PK/LDH-coupled NADH oxidation: DPM formation was assayed by adding an aliquot the DPM-synthesis reaction into a DPM decarboxylase

— paper PMC4143292, “An Enzymatic Platform for the Synthesis of Isoprenoid Precursors” (PLoS ONE, 2014)
